According to patent US8691280B2, “Microsphere comprising an organic lanthanide metal complex” (UMC Utrecht Holding B.V., priority 2007, dated 2014):

Assay: Determination of lanthanide (holmium, gadolinium) content of microspheres by complexometric titration and ICP-OES
Assay type: physicochemical
Conditions: Table 1, measured composition
Protocol: The holmium content of the microspheres was determined using the complexometric titration for aluminium that has been described in the European Pharmacopoeia. In short, approximately 50 mg of the dried microspheres is accurately weighed, and dissolved in 1 N NaOH. To this solution 1 N HCl is added and the solution is diluted to 50 ml, 5 grams hexamethylentetramine is added and the pH is adjusted to 5, using 1 N HCl. Approximately 50 mg of xylenol orange is added as an indicator, and the solution is then titrated with 0.01 M EDTA, until the colour changes from purple to yellow. Analyses were performed in triplicate.
The holmium content was measured by inductively coupled plasma optical emission spectrometry (IPC-OES). The microspheres are weighed and destructed at 100° C. with 5 ml 1 N NaOH, which was evaporated to dryness. 15 ml of 2% Nitric acid was added followed by a 1 in 50 dilution. Samples were introduced in an Optima 4300 CV (PerkinElmer; Norwalk, USA) and […] was measured at three different wavelengths (345.600, 339.898 and 347.426 nm) to accurately determine the holmium content.
The gadolinium content of the GdAcAc microspheres was determined in the same way as described in Example 1.

With “holmium acetylacetonate [HoAcAc crystals]” the “Ho, measured elemental composition” value was 31.2 % w/w.
